The values below come from patent publication US20160058739A1, “USE OF PIDOTIMOD TO TREAT INFLAMMATORY BOWEL DISEASE” (POLICHEM SA, priority 2013, published 2016).

This experiment has as its system patients with chronic diarrhoea caused by Crohn's disease or ulcerative colitis. Put plainly: open-label pilot trial in patients with chronic diarrhoea caused by Crohn's disease or ulcerative colitis. The class given is in vivo. The text has this: Three patients with chronic diarrhoea caused by Crohn's disease without resection, aged 44 to 63 years (2 female) and three patients with chronic diarrhoea caused by ulcerative colitis, aged 50 to 65 years (1 female) were enrolled in an open-label pilot trial to receive twice a day the composition as per the Example 4 for 12 weeks.

Where [1] appears, read: composition as per Example 4 twice a day for 12 weeks, 3 Crohn's disease and 3 ulcerative colitis patients.

Non-standard residues stand in square brackets, D forms with d. Residues, ends and D or L forms follow the SMILES beside them. pGlu = O=C1CC[C@@H](C(=O)O)N1; Thz = O=C(O)[C@@H]1CSCN1

For the molecule `O=C1CC[C@@H](C(=O)N2CSC[C@H]2C(=O)O)N1` [pidotimod, (4R)-3-(5-oxo-L-prolyl)-1,3-thiazolidine-4-carboxylic acid] ([pGlu]-[Thz]-OH), the “role in inflammatory bowel disease (IBD) in controlling signs and symptoms such as chronic diarrhea” value (administered twice daily for 12 weeks, study conclusion) is given as “beneficial role”. The frequency of stools entry (composition as per Example 4 (oral solution, 5.10% pidotimod) twice a day for 12 weeks, 3 Crohn's disease and 3 ulcerative colitis patients) is reported as “significantly decreased”. Besides, under setting [1], the bowel transit time entry was “prolonged”, the stool consistency entry was “became more solid” and the weight of stools result is “significantly decreased”.
